Source: patent US20050026853A1, “Anti-viral 7-deaza D-nucleosides and uses thereof” (Micrologix Biotech Inc., priority 2002, published 2005)

How the values were obtained:
[1] = overall biopharmaceutical properties / oral availability
HBV = HBV cell-based assay; set-up: species or system hepatitis B virus
Source text: As described herein, compounds of the instant invention show surprising and exceptionally strong inhibition of viral replication, particularly HBV. […] In certain embodiments, the invention provides compounds capable of inhibiting viral replication, preferably HBV, at clinically relevant concentrations.
HBV cell-based assays for the evaluation of anti-viral activity against HBV are known in the art (see, e.g., Korba et al., Antiviral Res. 15:217, 1991; and Korba et al., Antiviral Res. 19:55, 1992). Moreover, the compounds of the invention can be useful research tools for in vitro and cell-based assays to study the biological mechanisms of viral infection, growth, and replication, preferably for HBV. By way of background and not wishing to be bound by theory, HBV replication is unusual in that this virus has a partially […] circular DNA (all of the minus DNA strand and part of the plus strand), but replicates by way of an RNA intermediate (typically, single-stranded viral DNA is converted to double stranded DNA, which serves as the template for viral replication). That is, when the virus enters the cell, the minus-strand DNA is transported to the cell nucleus, plus strand RNA is then transcribed from the DNA, the RNA is transported to the cytoplasm, and reverse transcriptase then synthesizes viral DNA from the RNA for packaging. […]

Nc1ncnc2c1c(F)cn2[C@H]1CC(O)[C@@H](CO)O1 (stereo partly drawn) [structure (II), 4-amino-5-fluoro-7-(2′-deoxy-β-D-erythro-pentofuranosyl) pyrrolo[2,3-d]pyrimidine]
oral availability [1]: orally available
overall biopharmaceutical properties [1]: good overall biopharmaceutical properties
anti-viral activity against HBV (HBV): exhibit anti-viral activity against HBV
